Measurements from patent US20100113390A1, “OLIGOSACCHARIDES DERIVED FROM FUCOIDAN” (SUNTORY HOLDINGS LIMITED, priority 2007, published 2010).

Legend:
[1] = target: T1, porcine pancreatic lipase (Sus scrofa, UniProt P00591); assay: Measurement of lipase inhibitory activity (4-methylumbelliferone oleic acid ester, fluorescence); format: biochemical; conditions: at 4 mg/ml final concentration, FIG. 30
T1 construct: purchased SIGMA
T1 sequence (P00591 1-450): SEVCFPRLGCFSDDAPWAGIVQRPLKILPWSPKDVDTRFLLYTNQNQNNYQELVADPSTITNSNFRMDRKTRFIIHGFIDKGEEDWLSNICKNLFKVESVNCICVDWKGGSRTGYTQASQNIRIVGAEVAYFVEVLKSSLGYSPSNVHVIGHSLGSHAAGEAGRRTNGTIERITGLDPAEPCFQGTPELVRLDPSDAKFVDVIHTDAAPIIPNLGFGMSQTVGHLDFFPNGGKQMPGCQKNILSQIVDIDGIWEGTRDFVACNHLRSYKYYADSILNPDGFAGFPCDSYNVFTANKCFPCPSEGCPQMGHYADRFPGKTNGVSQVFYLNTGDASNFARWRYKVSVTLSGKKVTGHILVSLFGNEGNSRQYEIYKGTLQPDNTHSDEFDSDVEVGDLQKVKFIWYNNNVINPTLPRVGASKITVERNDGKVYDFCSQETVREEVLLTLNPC
Experimental: 1. In a 96-well flat-bottomed plate, GF (I) prepared in Example 3, as well as the GSFaF (VII)-containing fraction and the GSF fraction containing (V) and GSFF (VI) prepared in Example 4 were each adjusted to give a final concentration of 4 mg/ml (25 μl), followed by addition of 50 μl buffer (130 mM Tris-HCl buffer (pH 8.0, containing 150 mM NaCl and 1.36 mM CaCl2)) and 25 μl 4-methylumbelliferone oleic acid ester (SIGMA, final concentration: 100 μM). The plate was allowed to stand for 30 minutes at room temperature. Then, lipase (porcine pancreatic lipase, SIGMA) was added in a volume of 50 μl (final concentration: 100 U/ml) to initiate the reaction. 2. After 30 minutes, 100 μl citrate buffer (pH 4.2) was added to stop the reaction. The fluorescence intensity of 4-methylumbelliferone generated by the reaction (excitation wavelength: 355 nm, fluorescence wavelength: 460 nm) was measured with a fluorescence plate reader (Fluoroskan Asent CF, Labsystems). 3. As a control, water was used in place of the samples. As a blank, water was used in place of the samples and buffer was used in place of lipase. The following equation was used to calculate lipase inhibitory activity. 4. Calculation equation
Lipase inhibitory activity (%)=100−(A−B)/(C−B)×100
A: fluorescence intensity in sample, B: fluorescence intensity in blank, C: fluorescence intensity in control

[2] = target: α-glucosidase; assay: Measurement of α-glucosidase activity (p-nitrophenyl-α-D-glucopyranoside substrate, A405 nm); format: biochemical, yeast; conditions: for α-glucosidase inhibitory activity (% inhibition): at 5 mg/ml (samples adjusted to 50 mg/ml H2O), duplicate, FIG. 29
Experimental: 1. 0.1 M sodium phosphate buffer (a mixture of 0.1 M NaH2PO4.2H2O and 0.1 M Na2HPO4.12H2O, adjusted to pH 7.0) was supplemented with 2 g/L bovine serum albumin (a product of Nacalai Tesque, Inc., Japan, F-V, pH 5.2, purity: 96%) and 0.2 g/L NaN3 (a product of Nacalai Tesque, Inc., Japan, reagent grade). As an enzyme solution, α-glucosidase (a product of Wako Pure Chemical Industries, Ltd., Japan, derived from yeast, 100 units/mg) was dissolved in the above buffer at 0.5 units/mg protein/ml (100 μg/20 ml). As a substrate solution, p-nitrophenyl-α-D-glucopyranoside (a product of Nacalai Tesque, Inc., Japan, reagent grade) was dissolved in the above buffer at 5 mM (7.525 mg/5 ml). 2. For use as samples, GF (I) purified in Example 3 was adjusted to 200 mg/ml H2O and diluted two-fold to give 6 dilutions. Using a 96-well microplate, the enzyme solution (45 μL) was added to each of the sample solutions (10 μL) and pre-incubated at 37° C. for 5 minutes. After addition of the substrate solution (45 μL), each sample was measured for absorbance A405 nm (A405 nm at 0 min) and, after incubation at 37° C. for 5 minutes, was then measured for absorbance A405 nm (A405 nm at 5 min). As a control, H2O was added in place of the samples and measured for absorbance. The difference in A405 nm from the control was calculated as % inhibition. Activity measurement was made in quadruplicate. 3. […] As comparative samples, X2 (xylobiose) and glucuronic acid (Sigma-Aldrich) were neutralized with NaOH and adjusted to 50 mg/ml H2O (calculated based on the amount of glucuronic acid). […] After addition of the substrate solution (45 μl), each of the samples was measured for absorbance A405 nm (A405 nm at 0 min) and, after incubation at 37° C. for 5 minutes, was then measured for absorbance A405 nm (A405 nm at 5 min). As a control, H2O was added in place of the samples, and the difference in A405 nm from the control was calculated as % inhibition. […]

| Structure (SMILES) | inhibition at 4000 µg/mL [1] | α-glucosidase IC50 ([2]; GF (I) purified in Example 3, 6 two-fold dilutions, quadruplicate) | α-glucosidase inhibitory activity (% inhibition) [2] |
| --- | --- | --- | --- |
| CC1OC(O)C(OC2OC(C(=O)O)C(O)C(O)C2O)C(O)C1O [GF (I), α-D-GlcA-(1→2)-L-Fuc] | 81% | 20.4 mg/mL | – |
| OC1OC[C@@H](O[C@@H]2OC[C@@H](O)[C@H](O)[C@H]2O)[C@H](O)[C@H]1O (stereo partly shown) [X2, xylobiose] | – | – | 10.15% |
| O=C(O)[C@H]1OC(O)[C@H](O)[C@@H](O)[C@@H]1O (stereo partly shown) [glucuronic acid] | – | – | 8% |
